Measured values: US20060204443A1, “Methods for tumor treatment using dendrimer conjugates” (The Government of the USA as represented by the Secretary …, priority 2005, published 2006)
“Also recorded” adds a separate entry of the source.

Legend:
[1] = test system: deep lymphatic system (lymph nodes, thoracic duct); assay: Whole-body dynamic 3D-micro-MRL after intracutaneous injection, normal mice (Examples 2, 3); format: in vivo; settings: for Number of Mice in Which the Thoracic Duct was Visualized/Number of Mice Examined: Normal Mice, 0.1 μmolGd intracutaneously; for Axillary lymph node-to-background (muscle) signal intensity ratio / Axillary lymph node-to-liver signal intensity ratio: all time points examined; for Axillary lymph node-to-background (muscle) signal intensity ratio: FIG. 11A; for Axillary lymph node-to-liver signal intensity ratio: FIG. 11B
Procedure: (§1) The mice were anesthetized with 1.15 mg sodium pentobarbital (Dainabot, Osaka, Japan) by intraperitoneal injection, and then injected intracutaneously with 0.1 μmolGd of PAMAM-G8, DAB-G5, PAMAM-G4, Gadomer-17, or GPDM into four middle phalanges in all four extremities. Dynamic micro-MR images were obtained using a 1.5-Tesla superconductive magnet unit (Signa LX, General Electric Medical System, Milwaukee, Wis.) with a round birdcage type coil of 3 cm diameter fixed by a custom-made coil holder. Four to eight female mice (7 weeks old, 18-21 g body weight) in each group were used and each contrast agent was prepared at least three separate times for these imaging studies. The mice were wrapped with gauze to stabilize their body temperature and were placed at the center of the coils.
(§2) A 3D-fast spoiled gradient echo (3D-fastSPGR (efgre3d package; Signa Horizon, GE); repetition time/echo time 28.5/7.9 msec; inversion time 65 msec; 31.2 kHz, flip angle 30°, four excitations; 40 slice-encoding steps; scan time 7 min 36 seconds) with chemical shift fat-suppression was used 10, 20, 30, and 45 min after injection of the contrast agents. The coronal images were reconstructed with 0.6-mm section thickness at every 0.3-mm. The field of view was 6×3 cm and the size of the matrix was 512×256. The intensities of the regions of interest (for example, a whole axillary lymph node, and the liver) were measured, and then the time-intensity curves analyzed. The data were expressed as the axillary lymph node-to-muscle and the axillary lymph node-to-liver ratios. The slice data were processed into 3D images using the MIP method with the same window and level (window 3500 and level 2300) (Advantage Windows, General Electric Medical System). Two board-certified radiologists separately read a set of stereo views of 3D-MRL for all studies, and estimated the visualization of the thoracic duct. After imaging, the mice were sacrificed by carbon dioxide inhalation.
In this example, the PAMAM-G8 contrast agent is compared to GPDM. PAMAM-G8 was prepared as described in Example 2, and GPDM was purchased (Schering AG, Berlin, Germany). Animal models, administration of the contrast agents, and 3D-micro-MRL were as described in Example 2.

[2] = test system: lymphatic vessels and lymph nodes of disease model mice; assay: 3D-micro-MRL in lymphatic disease models (Concanavalin A lymphangitis, IL-15 transgenic); format: in vivo; settings: for Visualization of lymph nodes in lymphoproliferation/lymphoma: 45 minutes after injection
Procedure: To generate a lymphangitis model, Concanavalin A ([…]) (Sigma, St. Louis, Mo.) was injected intravenously into C57BL6 mice (NCI, Frederick, Md.) 24 hours before MRI was performed.
Eight- to 10-month old IL-15 transgenic mice (on a C57BL6 background) were used as a chronic lymphoproliferative/neoplastic disease model because they manifested selective expansion of NK, CD8^+NK-T, γδIELs, and CD8 T cells in the periphery. Most of the lymph nodes collected from an aged IL-15 transgenic mouse were enlarged in size. The lesion of proliferated monoclonal lymphocytes often involved the lung and the subcutaneous lymphatic tissue.
as §1, §2

[3] = test system: axillary lymph nodes and their lymphatic vessels; assay: Dynamic 3D-MR lymphangiography, effect of contrast agent size (Example 4); format: in vivo, athymic nu/nu mice; settings: for Visualization of axillary lymph nodes and their lymphatic vessels: 6-36 minutes post-injection into mammary gland; for Depiction of lymphatic vessels / Signal intensity within the axillary lymph nodes in comparison to G6 and G8 / Signal intensity of adjacent muscle in comparison to G6 and G8: mouse, in vivo; for Signal intensity within the axillary lymph node (enhancement ratio, lymph node / adjacent muscle): 0.15 μmolGd/5 μL
Procedure: Mice were anesthetized with 1.15 mg sodium pentobarbital (Dainabot, Osaka, Japan) by intraperitoneal injection. Then 0.15 μmolGd/5 μL of all nano-size contrast agents or 0.45 μmolGd/5 μL of Gd-[DTPA]-dimeglumine were injected into normal mammary glands or mammary tissue surrounding a tumor. Dynamic MR images were obtained using a 1.5-Tesla superconductive magnet unit (Signa LX, General Electric Medical System, Milwaukee, Wis.) with a birdcage type coil of 3 cm diameter fixed by a custom-made coil holder. The mice were wrapped with gauze to conserve their body temperature and were placed at the center of the coils.
In order to evaluate the effect of contrast agent molecular size on the ability to visualize the lymphatics and lymph nodes of athymic nu/nu mice, thirty five non-tumor bearing nu/nu mice were divided into seven groups (n=5). The mice were evaluated with 3D-fast spoiled gradient echo (3D-fastSPGR (efgre3d package; Signa Horizon, GE); repetition time/echo time 19.2/7.2 msec; inversion time 47 msec; bandwidth 31.2 kHz, flip angle 30°, 4 excitations; 36 slice encoding steps; scan time 4 minutes 49 seconds) with chemical shift fat-suppression at 6, 12, 18, 24, 30, and 36 minutes post-injection of each contrast agent. The coronal images were reconstructed with 0.6-mm section thickness every 0.3-mm. The field of view was 8×4 cm and the size of the matrix was 512×256. The slice data were processed into 3D images using the maximum intensity projection (MIP) method with the same window and level (window 3500 and level 2100) (Advantage Windows, General Electric Medical System). The enhancement ratio was calculated by taking the average signal intensity in the axillary lymph node and dividing it by the signal intensity in the adjacent muscle.

[4] = in vivo
[5] = Example 2, normal mice, 10-45 min after injection

Substance: DAB-Am-128-(Gd-1B4M)128 dendrimer conjugate [DAB-G5]
- Number of Mice in Which the Thoracic Duct was Visualized/Number of Mice Examined ([1]; 10 min): 3/5
- Number of Mice in Which the Thoracic Duct was Visualized/Number of Mice Examined ([1]; 20 min): 2/5
- Number of Mice in Which the Thoracic Duct was Visualized/Number of Mice Examined ([1]; 30 min): 0/5
- Number of Mice in Which the Thoracic Duct was Visualized/Number of Mice Examined ([1]; 45 min): 0/5
- Axillary lymph node-to-background (muscle) signal intensity ratio [1]: significantly higher than that obtained with either PAMAM-G8 or PAMAM-G4
- Axillary lymph node-to-liver signal intensity ratio [1]: nearly equivalent, but were significantly higher than that measured with GPDM
- Visualization of lymph nodes in lymphoproliferation/lymphoma ([2]; IL-15 transgenic mice, FIG. 13): considerable multiple lymph node swellings with central filling defects
- Visualization of axillary lymph nodes and their lymphatic vessels [3]: superior to the G2 and G4 PAMAM dendrimers; also recorded: better contrast than PAMAM dendrimer-based agents of similar sizes
- Depiction of lymphatic vessels [3]: neither agent depicted lymphatic vessels
- Signal intensity within the axillary lymph nodes in comparison to G6 and G8 [3]: lower signal intensities

Substance: PAMAM-G4D-(Gd-1B4M)64 dendrimer conjugate
- Number of Mice in Which the Thoracic Duct was Visualized/Number of Mice Examined ([1]; 10 min): 4/5
- Number of Mice in Which the Thoracic Duct was Visualized/Number of Mice Examined ([1]; 20 min): 4/5
- Number of Mice in Which the Thoracic Duct was Visualized/Number of Mice Examined ([1]; 30 min): 3/5
- Number of Mice in Which the Thoracic Duct was Visualized/Number of Mice Examined ([1]; 45 min): 2/5
- Axillary lymph node-to-background (muscle) signal intensity ratio [1]: significantly higher than that measured with Gadomer-17 and GPDM
- Axillary lymph node-to-liver signal intensity ratio [1]: significantly higher than that acquired with PAMAM-G8, DAB G-5, or Gadomer-17
- Survival in the blood circulation [4]: short survival in the blood circulation due to a rapid renal excretion without significant retention in other organs
- Visualization of axillary lymph nodes and their lymphatic vessels [3]: able to depict the lymph nodes only faintly and then only up to 12 minutes post-injection
- Signal intensity of adjacent muscle in comparison to G6 and G8 ([3]; listed as G4): significantly higher than those measured with G6 and G8; also recorded: higher signal in the adjacent muscle
- Signal intensity within the axillary lymph nodes in comparison to G6 and G8 ([3]; listed as G4): lower signal intensities; also recorded: significantly lower signal

Substance: Gadomer-17 [reference compound]
- Visualization of deep lymph nodes [1, 5]: allowed visualization of the deep lymph nodes, albeit not as clearly and brightly as the dendrimer-based agents
- Number of Mice in Which the Thoracic Duct was Visualized/Number of Mice Examined ([1]; 10 min): 2/5
- Number of Mice in Which the Thoracic Duct was Visualized/Number of Mice Examined ([1]; 20 min): 2/5
- Number of Mice in Which the Thoracic Duct was Visualized/Number of Mice Examined ([1]; 30 min): 1/5
- Number of Mice in Which the Thoracic Duct was Visualized/Number of Mice Examined ([1]; 45 min): 1/5
- Axillary lymph node-to-background (muscle) signal intensity ratio [1]: significantly higher than that acquired with GPDM
- Axillary lymph node-to-liver signal intensity ratio [1]: nearly equivalent, but were significantly higher than that measured with GPDM
- Clearance from the body ([4]; iv): rapidly cleared from the body
- Visualization of axillary lymph nodes and their lymphatic vessels [3]: superior to the G2 and G4 PAMAM dendrimers; also recorded: better contrast than PAMAM dendrimer-based agents of similar sizes
- Depiction of lymphatic vessels [3]: neither agent depicted lymphatic vessels
- Signal intensity of adjacent muscle in comparison to G6 and G8 [3]: significantly higher than those measured with G6 and G8
- Signal intensity within the axillary lymph nodes in comparison to G6 and G8 [3]: lower signal intensities

Substance: PAMAM-G7D-(Gd-1B4M)1024 dendrimer conjugate [PAMAM-G8]
- Visualization of lymphatic vessels ([1]; Example 2): better visualized with PAMAM-G8 compared to all other agents examined
- Visualization by a radiologist of the thoracic duct ([1]; Example 2, all times after administration): in all mice at all times after administration
- Visualization of deep lymph nodes [1, 5]: enabled most of the deep lymph nodes to be visualized
- Visualization of deep lymph nodes ([1]; Example 3, FIG. 15): most deep lymph nodes throughout the body were visualized
- Visualization of the thoracic duct ([1]; Example 3, FIG. 15): visualized in all six mice
- Number of Mice in Which the Thoracic Duct was Visualized/Number of Mice Examined ([1]; 10 min): 10/10
- Number of Mice in Which the Thoracic Duct was Visualized/Number of Mice Examined ([1]; 20 min): 10/10
- Number of Mice in Which the Thoracic Duct was Visualized/Number of Mice Examined ([1]; 30 min): 10/10
- Number of Mice in Which the Thoracic Duct was Visualized/Number of Mice Examined ([1]; 45 min): 10/10
- Axillary lymph node-to-background (muscle) signal intensity ratio [1]: significantly higher than that measured with Gadomer-17 and GPDM
- Axillary lymph node-to-liver signal intensity ratio [1]: nearly equivalent, but were significantly higher than that measured with GPDM
- Leakage out of the lymphatic vessels [4]: minimal leakage out of the lymphatic vessels
- Visualization of lymphatic vessels in lymphangitis ([2]; Concanavalin A lymphangitis model, FIG. 12): demonstrated the remarkable dilation of the lymphatic vessels throughout the body, especially in the liver
- Visualization of lymph nodes in lymphoproliferation/lymphoma ([2]; IL-15 transgenic mice, FIG. 13): considerable multiple lymph node swellings with central filling defects
- Visualization of dilation of lymphatic vessels ([2]; IL-15 transgenic mice, FIG. 13): best visualized with PAMAM-G8
- Visualization of axillary lymph nodes and their lymphatic vessels [3]: visualized at all time points in all 10 mice
- Signal intensity within the axillary lymph node (enhancement ratio, lymph node / adjacent muscle) ([3]; 6 minutes post-injection): 1.7±0.2
- Signal intensity within the axillary lymph node (enhancement ratio, lymph node / adjacent muscle) ([3]; 12 minutes post-injection): 2.3±0.2
